Key:
[1] = mn = molality of the nth substance listed, in mol/kg; settings: 101 kPa, Liquid; for viscosity: Capillary tube (Ostwald / Ubbelohde) method; for mass density: Vibrating tube method
[2] = 101 kPa, Liquid; for viscosity: Capillary tube (Ostwald / Ubbelohde) method; for mass density: Vibrating tube method

Cc1c(N)cccc1N [2,6-diaminotoluene] + O
[1]
Settings	mass density, 293.15 K [kg/m3]	mass density, 303.15 K [kg/m3]	mass density, 313.15 K [kg/m3]	mass density, 323.15 K [kg/m3]	mass density, 333.15 K [kg/m3]	viscosity, 293.15 K [mPa·s]	viscosity, 303.15 K [mPa·s]	viscosity, 313.15 K [mPa·s]	viscosity, 323.15 K [mPa·s]	viscosity, 333.15 K [mPa·s]
m1 = 0.0501	998.9	996.32	992.86	988.65	983.81	1.032	0.813	0.665	0.557	0.4741
m1 = 0.1002	999.59	996.97	993.49	989.24	984.38	1.053	0.832	0.677	0.563	0.479
m1 = 0.1502	1000.27	997.61	994.1	989.82	984.89	1.066	0.838	0.681	0.568	0.483
m1 = 0.2	1000.92	998.24	994.69	990.38	985.37	1.081	0.85	0.69	0.573	0.487
m1 = 0.2497	1001.57	998.86	995.27	990.93	985.79	1.09	0.854	0.694	0.575	0.488
m1 = 0.2993	1002.21	999.47	995.84	991.46	986.15	1.112	0.87	0.702	0.585	0.495

CCCCO [butan-1-ol]
[2]
Settings	mass density [kg/m3]	viscosity [mPa·s]
293.15 K	809.69	2.908
303.15 K	802.04	2.225
313.15 K	794.27	1.723
323.15 K	786.32	1.351
333.15 K	778.16	1.071

CCO [ethanol]
[2]
Settings	mass density [kg/m3]	viscosity [mPa·s]
293.15 K	789.56	1.179
303.15 K	780.98	0.972
313.15 K	772.22	0.806
323.15 K	763.29	0.672
333.15 K	754.18	0.564
